Measurements as given in patent publication US20110207685A1, “Oral Formulations of Chemotherapeutic Agents” (priority 2008, published 2011).
In brackets after ≈: the same amount, converted by molar mass. Read-outs that look alike come from different tables or passages of the source.

Key:
in vivo = conditions: mouse, plasma
Method: Three mice were used per time-point. Only one sampling was performed on the control group.

[1] = MTTD study, one administration per week during three weeks; assay type: in vivo, mice; conditions: J = 0, 7, 14
Method: The schedule of the MTTD studies was one administration per week during three weeks. Each dose was tested on a group of 3 animals and the animals were monitored for 2 weeks after the end of the last treatment, clinical toxicity signs were observed and the animals weight taken every two days.

[2] = Tolerance study (Step 1), relative body weight; assay type: in vivo, nude mice; conditions: oral IRN alone group (100 mg/kg po qd×5)
Method: When subcutaneous HT29 xenografts are detectable and reach a mean tumor volume of 150 mm3, groups of mice are randomly affected to the treatments. Mice without tumors were eliminated.
Mice in the control group received vehicle under a 750 μl volume.
Toxicity of the different treatments are determined as: body weight loss percent (% BWL max)=100−(mean BWx/mean BW1x 100), where BWx is the mean BW at the day of maximal loss during the treatment and BW1 is the mean BW on the 1st day of treatment.
All animals are weighted during the whole treatment period, in order to adjust the volume of drug administration and to calculate the percent body weight loss due to the different treatments.

[3] = Oral MTTD (tolerance) study on xenografted mice; assay type: in vivo; conditions: for Clinical symptoms: po, J = 1 to 5, mice with s.c. HT-29 tumor
Method: A tolerance and efficacy study on xenografted mice, in order to mimic as close as possible the in vivo model of colonic tumor, was carried out. As xenografted mice are very sensitive, the MTTD and efficacy study was done on mice with a subcutaneously implanted HT-29 colorectal human tumor cells.

HT29 cells = assay: In vitro cytotoxicity on HT29 cells; assay type: cell-based; conditions: Homo sapiens
physchem = conditions: phosphate buffer (control for the cyclodextrin mixtures), aqueous buffer
[4] = free drug; cited from earlier work

## CCc1c2c(nc3ccc(OC(=O)N4CCC(N5CCCCC5)CC4)cc13)-c1cc3c(c(=O)n1C2)COC(=O)[C@]3(O)CC [IRN, Irinotecan]
In vivo; iv, 20 mg/kg
  AUC: 1280 ng·h/mL
In vivo; oral, 100 mg/Kg
  bioavailability: 27.1%
In vivo; po, 100 mg/kg
  AUC: 1740 ng·h/mL
  Cmax: 477 ng/mL
  Tmax: 2.06 h
[1]; iv, 25 mg/kg BW
  Clinical symptoms: No clinical sign
[1]; po, 200 mg/kg BW
  Clinical symptoms: No clinical sign
[2]
  body weight loss: more than 15%
[3]; orally every day for 5 days, xenografted mice
  toxicity / tolerance: induced an important weight loss
[3]; 100 mg/kg BW
  Clinical symptoms: Weight loss, but mice
[3]; 200 mg/kg BW
  Clinical symptoms: Important weight loss
HT29 cells; HT-29, 96 h, read-out: IC50 [IRN], experiment GF411, HT29 cells, 4 days contact, as IRN concentration
  IC50: 0.75 µg/mL (≈ 1.28 µM)
HT29 cells; HT-29, 96 h, read-out: IC50 [IRN], experiment GF464, HT29 cells, 4 days contact, as IRN concentration
  IC50: 0.8 µg/mL (≈ 1.36 µM)
HT29 cells; HT-29, 96 h, read-out: IC50 [IRN], experiment GF522, HT29 cells, 4 days contact, as IRN concentration
  IC50: 0.85 µg/mL (≈ 1.45 µM)
HT29 cells; HT-29, read-out: Mean IC 50 [IRN], mean of three experiments, HT29 cells, as IRN concentration
  IC50: 0.8 µg/mL (≈ 1.36 µM)

## CC(=O)O[C@@]12CO[C@@H]1C[C@H](O)[C@@]1(C)C(=O)[C@H](O)C3=C(C)[C@@H](OC(=O)[C@H](O)[C@@H](NC(=O)OC(C)(C)C)c4ccccc4)C[C@@](O)([C@@H](OC(=O)c4ccccc4)[C@H]21)C3(C)C [docetaxel]
physchem
  solubility: 1.9 ± 0.1 µg/mL (≈ 2.35 µM)

## COc1cccc2c1C(=O)c1c(O)c3c(c(O)c1C2=O)C[C@@](O)(C(=O)CO)C[C@@H]3O[C@H]1C[C@H](N)[C@H](O)[C@H](C)O1 [doxorubicin, Doxorubicin]
[4]
  oral bioavailability compare to i. v. bioavailability: about 5%
